According to US20060178424A1, “Preventing atrial fibrillation (af) with the use of stain drugs” (priority 2003, published 2006):
“Also recorded” adds a separate entry of the source.

Legend:
[1] = system: atrial tachycardia-induced remodeling; settings: dog, cited from earlier work; for Prevention of effects of 1-week atrial tachycardia: literature refs 7-9
[2] = General properties (body weight, hemodynamic variables) at open-chest study; type: in vivo, dog; settings: mean±SEM; for Body weight: ATP with oral treatment
Excerpt: (§1) Unipolar leads were inserted through jugular veins into the right ventricular (RV) apex and right atrial (RA) appendage under fluoroscopic guidance and connected to pacemakers (Medtronic) in subcutaneous pockets in the neck. A bipolar electrode was also inserted into the RA for atrial stimulation and recording during serial electrophysiological study (EPS). AV block was created by radiofrequency catheter ablation to control ventricular response during atrial tachypacing (ATP) and the RV pacemaker was programmed to pace at 80 bpm.
(§2) Body temperature was maintained at 37° C., and a femoral artery and both femoral veins were cannulated for pressure monitoring and drug administration. A median sternotomy was performed, and bipolar electrodes were hooked to the RA and left atrial (LA) appendage for recording and stimulation. A programmable stimulator (Digital Cardiovascular Instruments) was used to deliver twice-threshold currents. […] AF duration was assessed as described above and AF vulnerability was determined as the percentage of atrial sites at which AF could be induced by single extrastimuli.

[3] = system: atrial tachypaced dogs (atrial tachycardia-induced remodeling); assay: Serial closed-chest electrophysiological study during 7-day atrial tachypacing (400 bpm); type: in vivo, dog; settings: 7-day ATP, in words
Excerpt: as §1
(§3) After 24 hours for recovery, a baseline closed-chest EPS was performed under anesthesia with ketamine, diazepam, and isoflurane, and then ATP (400 bpm) was initiated. Closed-chest EPS was repeated at 2,4 and 7 days of ATP and a final open-chest EPS was performed on day 8 under anesthesia with morphine and α-chloralose.

[4] = system: atrial tachypaced dogs (atrial tachycardia-induced remodeling); assay: Final open-chest electrophysiological study after atrial tachypacing; type: in vivo, dog
Excerpt: as §1, §3, §2

| SMILES | Prevention of effects of 1-week atrial tachycardia [1] | Diastolic BP [2] | HR (heart rate) [2] | LAP (left atrial pressure) [2] | LVEDP (left ventricular end-diastolic pressure) [2] | LVSP (left ventricular systolic pressure) [2] | Systolic BP [2] | Body weight [2] | Attenuation of ERP changes caused by 48-hour atrial tachycardia ([1]; Carnes et al) | Atrial tachycardia-induced AF promotion (AF duration progression) versus ATP-only [3] | ERP values as a function of cycle length versus ATP-only dogs ([4]; RA appendage, final open-chest study, in words) | AF requiring cardioversion for termination, share of dogs ([4]; following ATP, ATP-only 57%) | Effect on tachypacing-induced ERP shortening and AF promotion (remodeling) ([4]; one week of atrial tachypacing, in words) |
| --- | --- | --- | --- | --- | --- | --- | --- | --- | --- | --- | --- | --- | --- |
| CCCCc1oc2ccccc2c1C(=O)c1cc(I)c(OCCN(CC)CC)c(I)c1 [amiodarone] | prevent the effects of 1-week atrial tachycardia in the dog | – | – | – | – | – | – | – | – | – | – | – | – |
| COCC(=O)O[C@]1(CCN(C)CCCc2nc3ccccc3[nH]2)CCc2cc(F)ccc2[C@@H]1C(C)C [mibefradil] | prevent the effects of 1-week atrial tachycardia in the dog | – | – | – | – | – | – | – | – | – | – | – | – |
| CCC(C)(C)C(=O)O[C@H]1C[C@@H](C)C=C2C=C[C@H](C)[C@H](CC[C@@H]3C[C@@H](O)CC(=O)O3)[C@H]21 [simvastatin] | – | 60 ± 7 mm Hg | 169 ± 6 bpm | 8 ± 1 mm Hg | 9 ± 1 mm Hg | 127 ± 5 mm Hg | 131 ± 4 mm Hg | 29 ± 2 kg | – | – | – | – | – |
| O=C1O[C@H]([C@@H](O)CO)C(O)=C1O [vitamin C] | – | 41 ± 6 mm Hg | 145 ± 9 bpm | 5 ± 1 mm Hg | 6 ± 1 mm Hg | 107 ± 8 mm Hg | 107 ± 8 mm Hg | 32 ± 2 kg | effectiveness | not significantly different from ATP-only dogs | No significant differences | 33% | unaffected; also recorded: not altered; also recorded: not shared; also recorded: not observed |
